Structures can show the parent of a compound that is named as a salt. Where two headings read alike, the source gives them in different places.
Key:
[1] = molecular target: CYP3A4 (Homo sapiens, UniProt P08684); experiment: biochemical
[2] = molecular target: T1, human CYP2C19 (Homo sapiens, UniProt P33261); experiment: biochemical
[3] = molecular target: T2, human CYP2C9 (Homo sapiens, UniProt P11712); experiment: biochemical
[4] = molecular target: T3, human CYP1A2 (Homo sapiens, UniProt P05177); experiment: biochemical
T3 sequence (P05177 1-516): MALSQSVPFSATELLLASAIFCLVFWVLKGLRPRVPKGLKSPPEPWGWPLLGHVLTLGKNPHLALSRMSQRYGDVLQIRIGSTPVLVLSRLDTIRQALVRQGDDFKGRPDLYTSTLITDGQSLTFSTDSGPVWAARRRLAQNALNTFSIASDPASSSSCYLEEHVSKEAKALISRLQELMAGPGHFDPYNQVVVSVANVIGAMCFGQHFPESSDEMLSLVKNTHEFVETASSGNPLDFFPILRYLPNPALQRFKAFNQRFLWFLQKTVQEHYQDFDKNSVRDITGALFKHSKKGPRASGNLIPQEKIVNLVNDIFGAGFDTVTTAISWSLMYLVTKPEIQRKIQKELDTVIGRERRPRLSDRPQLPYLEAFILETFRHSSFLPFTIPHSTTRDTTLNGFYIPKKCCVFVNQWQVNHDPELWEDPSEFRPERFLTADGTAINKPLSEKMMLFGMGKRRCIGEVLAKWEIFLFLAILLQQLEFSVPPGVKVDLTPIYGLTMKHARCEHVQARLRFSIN

[5] = molecular target: Photinus pyralis (firefly) luciferase (Photinus pyralis, UniProt P08659); experiment: biochemical; format: biochemical
Chain of Photinus pyralis (firefly) luciferase (P08659 whole entry): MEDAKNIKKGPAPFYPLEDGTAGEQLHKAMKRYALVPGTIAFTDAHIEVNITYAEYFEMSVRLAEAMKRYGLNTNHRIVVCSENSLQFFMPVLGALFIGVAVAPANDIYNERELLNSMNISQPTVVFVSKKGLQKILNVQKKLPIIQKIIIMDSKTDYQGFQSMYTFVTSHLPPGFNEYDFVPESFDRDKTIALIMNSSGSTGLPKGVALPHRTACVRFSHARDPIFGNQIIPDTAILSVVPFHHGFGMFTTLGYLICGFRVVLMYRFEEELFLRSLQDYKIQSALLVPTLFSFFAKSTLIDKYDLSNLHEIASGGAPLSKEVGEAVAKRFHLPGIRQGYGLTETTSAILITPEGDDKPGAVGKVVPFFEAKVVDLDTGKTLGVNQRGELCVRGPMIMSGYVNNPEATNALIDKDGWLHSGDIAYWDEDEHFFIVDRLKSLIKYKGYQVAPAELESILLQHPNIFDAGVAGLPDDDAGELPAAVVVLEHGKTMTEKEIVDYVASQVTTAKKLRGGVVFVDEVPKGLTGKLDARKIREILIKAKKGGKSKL

[6] = molecular target: human CYP2D6 (Homo sapiens, UniProt P10635)
Chain of human CYP2D6 (P10635 whole entry): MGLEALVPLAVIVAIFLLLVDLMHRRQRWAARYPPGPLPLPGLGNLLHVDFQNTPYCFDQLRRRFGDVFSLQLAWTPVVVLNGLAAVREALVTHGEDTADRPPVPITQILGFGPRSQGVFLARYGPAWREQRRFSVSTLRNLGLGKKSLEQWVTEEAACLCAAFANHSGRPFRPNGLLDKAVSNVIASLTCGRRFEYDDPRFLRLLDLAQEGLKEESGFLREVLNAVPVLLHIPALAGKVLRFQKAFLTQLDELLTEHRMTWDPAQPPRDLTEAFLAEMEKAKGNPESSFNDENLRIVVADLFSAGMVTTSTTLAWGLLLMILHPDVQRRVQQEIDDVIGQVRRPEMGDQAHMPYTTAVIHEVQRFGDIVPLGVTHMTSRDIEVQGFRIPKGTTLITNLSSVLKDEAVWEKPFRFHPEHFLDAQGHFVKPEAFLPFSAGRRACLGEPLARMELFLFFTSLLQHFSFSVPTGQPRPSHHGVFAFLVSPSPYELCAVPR

[7] = molecular target: T3, human CYP1A2
[8] = molecular target: T2, human CYP2C9
[9] = molecular target: T1, human CYP2C19
[10] = CYP3A4 IC50 (half-maximal inhibitory concentration)
[11] = CYP2C19 IC50 (half-maximal inhibitory concentration)
[12] = CYP2C9 IC50 (half-maximal inhibitory concentration)
[13] = CYP3A4 AC50 (half-maximal activity concentration)
[14] = CYP2C19 AC50 (half-maximal activity concentration)
[15] = CYP1A2 AC50 (half-maximal activity concentration)
[16] = CYP1A2 IC50 (half-maximal inhibitory concentration)

T1 sequence (P33261 whole entry): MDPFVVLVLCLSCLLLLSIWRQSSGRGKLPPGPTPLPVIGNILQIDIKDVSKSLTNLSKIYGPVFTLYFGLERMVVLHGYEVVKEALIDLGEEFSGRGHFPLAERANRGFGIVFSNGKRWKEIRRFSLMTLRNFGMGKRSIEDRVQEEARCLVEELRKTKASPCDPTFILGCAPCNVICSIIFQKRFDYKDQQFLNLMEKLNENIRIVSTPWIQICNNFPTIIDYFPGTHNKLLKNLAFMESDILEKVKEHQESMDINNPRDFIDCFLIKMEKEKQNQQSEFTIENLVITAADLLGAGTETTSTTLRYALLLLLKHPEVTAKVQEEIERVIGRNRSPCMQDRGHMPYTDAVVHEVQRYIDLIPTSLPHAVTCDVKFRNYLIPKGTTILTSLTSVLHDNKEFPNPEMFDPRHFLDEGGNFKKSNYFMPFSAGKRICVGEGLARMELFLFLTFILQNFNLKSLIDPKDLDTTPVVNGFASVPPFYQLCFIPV
T2 sequence (P11712 whole entry): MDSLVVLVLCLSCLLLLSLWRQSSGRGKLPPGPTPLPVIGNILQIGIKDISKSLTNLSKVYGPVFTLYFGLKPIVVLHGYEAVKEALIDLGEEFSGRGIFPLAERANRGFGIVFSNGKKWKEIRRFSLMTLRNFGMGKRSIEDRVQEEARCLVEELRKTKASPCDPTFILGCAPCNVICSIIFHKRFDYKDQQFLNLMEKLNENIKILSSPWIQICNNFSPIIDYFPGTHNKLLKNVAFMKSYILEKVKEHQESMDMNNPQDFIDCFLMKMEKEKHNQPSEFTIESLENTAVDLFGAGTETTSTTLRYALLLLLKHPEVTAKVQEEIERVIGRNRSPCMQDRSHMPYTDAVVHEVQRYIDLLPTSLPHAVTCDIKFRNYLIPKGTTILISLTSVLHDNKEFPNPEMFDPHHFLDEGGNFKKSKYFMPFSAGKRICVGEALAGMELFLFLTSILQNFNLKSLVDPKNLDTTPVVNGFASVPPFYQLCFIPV
Chain of CYP3A4 (P08684 whole entry): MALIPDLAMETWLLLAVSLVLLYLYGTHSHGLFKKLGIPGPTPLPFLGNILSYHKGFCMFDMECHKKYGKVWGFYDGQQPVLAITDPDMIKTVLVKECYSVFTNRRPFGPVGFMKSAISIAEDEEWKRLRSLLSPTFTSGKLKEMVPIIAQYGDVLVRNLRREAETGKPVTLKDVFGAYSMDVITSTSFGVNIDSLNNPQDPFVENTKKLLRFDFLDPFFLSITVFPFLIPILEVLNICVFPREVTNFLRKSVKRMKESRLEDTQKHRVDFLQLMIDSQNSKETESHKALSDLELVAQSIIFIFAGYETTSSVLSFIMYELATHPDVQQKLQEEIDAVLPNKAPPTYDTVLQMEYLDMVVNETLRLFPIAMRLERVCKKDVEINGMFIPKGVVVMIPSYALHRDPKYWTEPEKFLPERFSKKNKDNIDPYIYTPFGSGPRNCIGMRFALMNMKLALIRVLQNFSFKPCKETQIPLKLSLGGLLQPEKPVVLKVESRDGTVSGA

Compound: C=CC(=O)OCCn1c(=O)n(CCOC(=O)C=C)c(=O)n(CCOC(=O)C=C)c1=O
- IC50 [1]: 0.25 µM
- IC50 [2]: 4.01 µM
- IC50 [3]: 35.7 µM
- IC50 [4]: 58.1 µM
- Luciferase IC50 (half-maximal inhibitory concentration) [5]: Inactive
- CYP2D6 IC50 (half-maximal inhibitory concentration) [6]: Inactive

Compound: COC(=O)N(C(=O)N1COC2(C(=O)OC)Cc3cc(Cl)ccc3C2=N1)c1ccc(OC(F)(F)F)cc1 (racemic) [(+-)-Indoxacarb]
- IC50 [1, 10]: 6.03 µM
- IC50 [2, 11]: 0.28 µM
- IC50 [3, 12]: 4.76 µM
- Luciferase IC50 (half-maximal inhibitory concentration) [5]: Inactive
- CYP2D6 IC50 (half-maximal inhibitory concentration) [6]: Inactive
- CYP1A2 IC50 (half-maximal inhibitory concentration) [7]: Inactive

Compound: O=C(Cc1ccccc1)c1ccccc1 [1,2-Diphenylethanone]
- AC50 [1, 13]: 7.68 µM
- AC50 [2, 14]: 12.8 µM
- CYP2C9 AC50 (half-maximal activity concentration) [8]: Inconclusive inhibitor
- AC50 [4, 15]: 12.6 µM
- CYP2D6 AC50 (half-maximal activity concentration) [6]: Inconclusive inhibitor

Compound: O=C1c2ccccc2C(=O)c2c(Cl)cccc21 [1-Chloroanthraquinone]
- AC50 [1]: 2.37 µM
- AC50 [2]: 13.9 µM
- IC50 [2]: 13.9 µM
- AC50 [3]: 12.6 µM
- IC50 [3]: 12.6 µM
- AC50 [4]: 0.05 µM
- IC50 [4]: 0.05 µM
- Luciferase IC50 (half-maximal inhibitory concentration) [5]: Inactive
- CYP2D6 IC50 (half-maximal inhibitory concentration) [6]: Inactive

Compound: CC(=O)c1ccc2ccccc2c1 [2'-Acetonaphthone]
- AC50 [1, 13]: 34.4 µM
- AC50 [2, 14]: 45 µM
- CYP2C9 AC50 (half-maximal activity concentration) [8]: Inactive
- AC50 [4, 15]: 9.34 µM
- CYP2D6 AC50 (half-maximal activity concentration) [6]: Inconclusive inhibitor

Compound: COC(=O)COc1ccc(Cl)cc1Cl [2,4-D-methyl]
- AC50 [1, 13]: 44 µM
- AC50 [2, 14]: 71.9 µM
- CYP2C9 AC50 (half-maximal activity concentration) [8]: Inactive
- AC50 [4, 15]: 15.4 µM
- CYP2D6 AC50 (half-maximal activity concentration) [6]: Inactive

Compound: Nc1ccc2c3c(cccc13)-c1ccccc1-2 [3-Aminofluoranthene]
- IC50 ([1]; CYP3A4 IC50): 19.8 µM
- IC50 ([2]; CYP2C19 IC50): 21.2 µM
- IC50 ([3]; CYP2C9 IC50): 34.7 µM
- IC50 ([4]; CYP1A2 IC50): 0.13 µM
- IC50 [5]: 27.8 µM
- CYP2D6 IC50 [6]: Inactive

Compound: Cc1ccc2cc3c(ccc4ccccc43)c3c2c1CC3 [3-Methylcholanthrene]
- IC50 ([1]; CYP3A4 IC50): 8.02 µM
- IC50 ([2]; CYP2C19 IC50): 22.4 µM
- IC50 ([3]; CYP2C9 IC50): 6.43 µM
- IC50 ([4]; CYP1A2 IC50): 0.39 µM
- IC50 [5]: 6.94 µM
- CYP2D6 IC50 [6]: Inactive

Compound: COc1ccc(COC(C)=O)cc1 [4-Methoxybenzyl acetate]
- AC50 [1]: 40.8 µM
- AC50 [2]: 53.7 µM
- CYP2C9 AC50 (half-maximal activity concentration) [8]: Inactive
- AC50 [4]: 28.9 µM
- CYP2D6 AC50 (half-maximal activity concentration) [6]: Inactive

Compound: Cc1c2ccccc2c(C)c2c1ccc1ccccc12 [7,12-Dimethylbenz(a)anthracene]
- IC50 ([1]; CYP3A4 IC50): 22.6 µM
- IC50 ([2]; CYP2C19 IC50): 6.09 µM
- IC50 ([3]; CYP2C9 IC50): 27.3 µM
- IC50 ([4]; CYP1A2 IC50): 0.5 µM
- IC50 [5]: 32.7 µM
- CYP2D6 IC50 [6]: Inactive

Compound: O=C1c2ccccc2-c2ccccc21 [9-Fluorenone]
- AC50 [1]: 10.4 µM
- AC50 [2]: 43.8 µM
- IC50 [2]: 43.8 µM
- AC50 [3]: 67.7 µM
- IC50 [3]: 67.7 µM
- AC50 [4]: 0.45 µM
- IC50 [4]: 0.45 µM
- IC50 [5]: 67.7 µM
- CYP2D6 IC50 (half-maximal inhibitory concentration) [6]: Inactive

Compound: COc1ccc(-c2ccccc2)cc1NNC(=O)OC(C)C [Bifenazate]
- IC50 [1, 10]: 1.51 µM
- IC50 [2, 11]: 0.49 µM
- IC50 [3, 12]: 2.33 µM
- IC50 [4, 16]: 4.75 µM
- Luciferase IC50 (half-maximal inhibitory concentration) [5]: Inactive

Compound: O=S1(=O)OCC2C(CO1)C1(Cl)C(Cl)=C(Cl)C2(Cl)C1(Cl)Cl (stereo not shown) [Endosulfan sulfate]
- IC50 ([1]; CYP3A4 IC50): 0.22 µM
- IC50 ([2]; CYP2C19 IC50): 2.25 µM
- IC50 ([3]; CYP2C9 IC50): 18.7 µM
- IC50 ([4]; CYP1A2 IC50): 47.5 µM
- IC50 [5]: 53.2 µM
- CYP2D6 IC50 [6]: Inactive

Compound: CCN(Cc1c(F)cccc1Cl)c1c([N+](=O)[O-])cc(C(F)(F)F)cc1[N+](=O)[O-] [Flumetralin]
- IC50 [1, 10]: 0.38 µM
- IC50 [2, 11]: 2.22 µM
- IC50 [3]: 7.39 µM
- Luciferase IC50 (half-maximal inhibitory concentration) [5]: Inactive
- CYP2D6 IC50 (half-maximal inhibitory concentration) [6]: Inactive
- CYP1A2 IC50 (half-maximal inhibitory concentration) [7]: Inactive

Compound: CC(=O)[C@H]1CC[C@H]2[C@@H]3CC[C@H]4C[C@](C)(O)CC[C@]4(C)[C@H]3CC[C@]12C [Ganaxolone]
- AC50 [1, 13]: 3.37 µM
- CYP2C9 AC50 (half-maximal activity concentration) [8]: Inactive
- AC50 [4, 15]: 25.3 µM
- CYP2C19 AC50 (half-maximal activity concentration) [9]: Inactive
- CYP2D6 AC50 (half-maximal activity concentration) [6]: Inactive

Compound: CNC(=O)Oc1ccccc1C(C)C [Isoprocarb]
- AC50 [1, 13]: 49.3 µM
- AC50 [2, 14]: 63.5 µM
- CYP2C9 AC50 (half-maximal activity concentration) [8]: Inconclusive inhibitor
- AC50 [4, 15]: 35.6 µM
- CYP2D6 AC50 (half-maximal activity concentration) [6]: Inactive

Compound: CO/N=C(/C(=O)OC)c1ccccc1COc1ccccc1C [Kresoxim-methyl]
- IC50 [1, 10]: 9.48 µM
- IC50 [2, 11]: 0.51 µM
- IC50 [3, 12]: 19.6 µM
- IC50 [4, 16]: 22 µM
- Luciferase IC50 (half-maximal inhibitory concentration) [5]: Inactive
- CYP2D6 IC50 (half-maximal inhibitory concentration) [6]: Inactive

Compound: O=[N+]([O-])c1c(Cl)c(Cl)c(Cl)c(Cl)c1Cl [Pentachloronitrobenzene]
- AC50 [1, 13]: 4.7 µM
- CYP2C9 AC50 (half-maximal activity concentration) [8]: Inconclusive inhibitor
- AC50 [4, 15]: 1.94 µM
- CYP2C19 AC50 (half-maximal activity concentration) [9]: Inconclusive inhibitor
- CYP2D6 AC50 (half-maximal activity concentration) [6]: Inactive

Compound: Cc1ccc2ccccc2n1 [Quinaldine]
- AC50 [1, 13]: 47.7 µM
- CYP2C9 AC50 (half-maximal activity concentration) [8]: Inactive
- AC50 [4, 15]: 44 µM
- CYP2C19 AC50 (half-maximal activity concentration) [9]: Inactive
- CYP2D6 AC50 (half-maximal activity concentration) [6]: Inactive

Compound: CCNc1nc(NCC)nc(SC)n1 [Simetryn]
- AC50 [1, 13]: 46.2 µM
- CYP2C9 AC50 (half-maximal activity concentration) [8]: Inconclusive activator
- AC50 [4, 15]: 8.11 µM
- CYP2C19 AC50 (half-maximal activity concentration) [9]: Inconclusive inhibitor
- CYP2D6 AC50 (half-maximal activity concentration) [6]: Inactive

Compound: CCNc1nc(NC(C)(C)C)nc(SC)n1 [Terbutryn]
- AC50 [1, 13]: 11.5 µM
- AC50 [2, 14]: 39.6 µM
- CYP2C9 AC50 (half-maximal activity concentration) [8]: Inconclusive activator
- AC50 [4, 15]: 7.74 µM
- CYP2D6 AC50 (half-maximal activity concentration) [6]: Inactive
